Measurements: ChEMBL document CHEMBL1201862, “PubChem BioAssay data set” (2004)
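Results reflect a 48-hour exposure of cells in 96-well plates to compound at five concentrations. GI50 = concentration required for 50% inhibition of growth.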 Calls of active or inactive are those of the source. No stated cut-off is given here; in the data, active = GI50 up to about 1.1 µM and inactive = higher.

What was measured:
Assay in all cases: NCI-60 cell line screen, 48 h
SNB-75 = test system: SNB-75
OVCAR-5 = test system: OVCAR-5
OVCAR-4 = test system: OVCAR-4
A498 = test system: A498
OVCAR-3 = test system: OVCAR-3
ACHN = test system: ACHN
U-251 = test system: U-251
M14 = test system: M14
LOX IMVI = test system: LOX IMVI
NCI-H522 = test system: NCI-H522
UACC-62 = test system: UACC-62
NCI/ADR-RES = test system: NCI/ADR-RES
TK-10 = test system: TK-10
K562 = test system: K562
HOP-92 = test system: HOP-92
HCC 2998 = test system: HCC 2998
OVCAR-8 = test system: OVCAR-8
SK-MEL-5 = test system: SK-MEL-5
UO-31 = test system: UO-31

| SMILES | GI50 (SNB-75) | GI50 (OVCAR-5) | GI50 (OVCAR-4) | GI50 (A498) | GI50 (OVCAR-3) | GI50 (ACHN) | GI50 (U-251) | GI50 (M14) | GI50 (LOX IMVI) | GI50 (NCI-H522) | GI50 (UACC-62) | GI50 (NCI/ADR-RES) | GI50 (TK-10) | GI50 (K562) | GI50 (HOP-92) | GI50 (HCC 2998) | GI50 (OVCAR-8) | GI50 (SK-MEL-5) | GI50 (UO-31) |
| --- | --- | --- | --- | --- | --- | --- | --- | --- | --- | --- | --- | --- | --- | --- | --- | --- | --- | --- | --- |
| CC1=Nc2ccccc2OC(C)=C1/N=N/c1ccc2[nH]c(C)nc2c1 | 25.1 µM (inactive) | > 100 µM (inactive) | > 100 µM (inactive) | 24.4 µM (inactive) | > 100 µM (inactive) | 43.8 µM (inactive) | > 100 µM (inactive) | > 100 µM (inactive) | 66.2 µM (inactive) | > 100 µM (inactive) | 83.4 µM (inactive) | > 100 µM (inactive) | > 100 µM (inactive) | > 100 µM (inactive) | 44.1 µM (inactive) | > 100 µM (inactive) | > 100 µM (inactive) |  |  |
| COc1cc(Nc2nc3cc(C(F)(F)F)ccc3nc2C(=O)O)cc(OC)c1OC | 10.6 µM (inactive) | > 100 µM (inactive) | > 100 µM (inactive) | 77.8 µM (inactive) | 29.7 µM (inactive) | 65.6 µM (inactive) | 36.6 µM (inactive) | 40.6 µM (inactive) | 32.1 µM (inactive) | 30.9 µM (inactive) | 39.8 µM (inactive) | 41.7 µM (inactive) | 51.3 µM (inactive) |  | 29.6 µM (inactive) | 61 µM (inactive) | 43.8 µM (inactive) | 49 µM (inactive) | 42.7 µM (inactive) |
| CC#CC#C/C=C1/O[C@]2(CCC(OC(C)=O)CO2)[C@@H]2O[C@H]12 (stereo not given in full) | 80.5 µM (inactive) | 30.5 µM (inactive) | 27.9 µM (inactive) | 22.2 µM (inactive) | 29.4 µM (inactive) | 24.9 µM (inactive) | 17.9 µM (inactive) | 18.4 µM (inactive) | 15.1 µM (inactive) | 15.3 µM (inactive) | 16.6 µM (inactive) | 21.7 µM (inactive) | 39.5 µM (inactive) | 29.4 µM (inactive) | 28.1 µM (inactive) | 18.5 µM (inactive) | 32.8 µM (inactive) |  | 20.1 µM (inactive) |
| CC(=O)OC/C=C/Cn1ncc(=O)[nH]c1=O | > 100 µM (inactive) | > 100 µM (inactive) |  | > 100 µM (inactive) | > 100 µM (inactive) | > 100 µM (inactive) | > 100 µM (inactive) | > 100 µM (inactive) | > 100 µM (inactive) | > 100 µM (inactive) |  | > 100 µM (inactive) |  | > 100 µM (inactive) | > 100 µM (inactive) | > 100 µM (inactive) | > 100 µM (inactive) | > 100 µM (inactive) | > 100 µM (inactive) |
| CCN(CCCl)c1cc(CN(C)C)cc(NC(=O)c2ccc(C(=O)Nc3ccccc3)cc2)c1 | 1.08 µM (active) | 0.836 µM (active) | 0.288 µM (active) | 0.316 µM (active) |  | 0.218 µM (active) | 0.25 µM (active) | 0.883 µM (active) | 0.204 µM (active) | 0.109 µM (active) | 1.29 µM (inactive) | 2.63 µM (inactive) | 3.02 µM (inactive) | 0.406 µM (active) | 0.414 µM (active) | 0.789 µM (active) | 0.417 µM (active) | 0.194 µM (active) | 1.91 µM (inactive) |
| N#C[C@H](c1nc2ccccc2[nH]1)c1nc2ccccc2nc1Cl | 12.9 µM (inactive) | > 44.3 µM (inactive) | > 35.2 µM (inactive) | 26.2 µM (inactive) | > 100 µM (inactive) | > 23.1 µM (inactive) | 15.8 µM (inactive) | > 23.4 µM (inactive) | 3 µM (inactive) | 2.85 µM (inactive) |  | 29.8 µM (inactive) | 14 µM (inactive) | 4.2 µM (inactive) | > 29 µM (inactive) | > 40.6 µM (inactive) | 12.6 µM (inactive) | 5.98 µM (inactive) | > 47 µM (inactive) |
